*1 amine or outer side, *2 acyl side, *3 side chain or, on linkers, in order; H or OH if unused. Where a SMILES comes first, the peptide text is derived from it. Bridges are numbered along the chain shown (N, C = ends). [ ]: non-standard residue; d: D form. The star is where a group is joined. ξ: configuration not given here. ξOrn(4,5-diOH) = O=C(C(CC(O)C(O)N[*:3])N[*:1])[*:2]; ξhTyr(βξ-OH,γξ-OH) = NC(C(=O)O)C(O)C(O)c1ccc(O)cc1; ξPro(3ξ-OH,4ξ-Me) = CC1CNC(C(=O)O)C1O; X2 = O=C(C=Cc1ccc(N[*:1])cc1)[*:2]; Palmitoyl = CCCCCCCCCCCCCCCC(=O)*; X6 = O=C(Cc1ccc(N[*:1])cc1)[*:2]; X3 = CCCCCCCCOc1ccc(CC(=O)*)cc1; X5 = CCCCCCCOc1ccc(CCC(=O)*)cc1; X1 = CCCCCC=CCC=CCCCCCCCC(=O)*; X4 = CCCCCOc1ccc(CCC(=O)*)cc1; Hyp = O=C(O)[CH]1C[CH](O)CN1; Lauroyl = CCCCCCCCCCCC(=O)*; 4Abz = Nc1ccc(C(=O)O)cc1
Biological target: T1, ECB deacylase (Actinoplanes utahensis, UniProt P29958)
T1 construct: ECB deacylase is an 81-kilodalton (KD) heterodimer comprising 63-KD and 18 KD subunits; made in house; host or cells: Actinoplanes utahensis (native producer, not recombinant); enzyme solubilized from whole cells with salt and purified
T1 sequence (P29958 230-786 limits assumed): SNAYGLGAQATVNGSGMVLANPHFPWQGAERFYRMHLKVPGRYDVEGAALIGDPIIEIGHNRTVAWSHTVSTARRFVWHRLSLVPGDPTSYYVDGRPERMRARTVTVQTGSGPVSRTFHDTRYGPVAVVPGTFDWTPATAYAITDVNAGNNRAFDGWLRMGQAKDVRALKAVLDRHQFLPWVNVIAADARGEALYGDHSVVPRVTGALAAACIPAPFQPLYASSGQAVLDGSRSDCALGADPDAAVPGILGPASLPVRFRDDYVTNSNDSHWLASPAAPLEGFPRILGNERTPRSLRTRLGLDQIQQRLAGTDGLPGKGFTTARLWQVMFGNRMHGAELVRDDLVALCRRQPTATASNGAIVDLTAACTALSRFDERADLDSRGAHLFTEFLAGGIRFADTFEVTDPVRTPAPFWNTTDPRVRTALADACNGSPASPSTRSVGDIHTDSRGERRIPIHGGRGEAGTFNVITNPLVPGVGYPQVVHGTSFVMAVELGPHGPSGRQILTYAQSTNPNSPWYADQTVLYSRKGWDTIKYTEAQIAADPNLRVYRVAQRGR
T1 sequence (P29958 35-214 limits assumed): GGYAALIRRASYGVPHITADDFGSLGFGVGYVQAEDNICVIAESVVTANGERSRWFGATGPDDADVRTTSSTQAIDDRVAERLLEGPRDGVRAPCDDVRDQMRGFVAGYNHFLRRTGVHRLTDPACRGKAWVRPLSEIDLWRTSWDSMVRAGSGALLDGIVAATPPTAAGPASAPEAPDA
Test: ECB deacylase assay (formation of ECB nucleus by HPLC)
Type: biochemical
Conditions: for percent activity relative to the deacylase activity of 100% for ECB itself: substrate specificity
Description: The assay employed herein for determining and measuring deacylase activity utilizes echinocandin B as substrate. A typical reaction mixture of 1 ml for ECB deacylase assay contained […] of ECB and 0.000003 to 0.003 unit of the enzyme in 0.05M KH2 PO4, pH 6.0, in the presence of 0.68M KCl and 15% DMSO to effect solution of the ECB. The enzymatic reaction was initiated by addition of the enzyme and was continued for 20 min at 60° C. before being interrupted by the addition of phosphoric acid. After a low-speed centrifugation to remove precipitated protein, the deacylase activity was determined by monitoring the formation of ECB nucleus at 225 nm using HPLC.
HPLC components were IBM PS/2 Model 80 and Color Display (IBM, Armonk, N.Y.), a Water 715 Ultra WISP Sample Processor (Waters Associates, Milford, Mass.), and a Beckman System Gold Programmable Solvent Module 126 and Scanning Detector Module 167 (Beckman, Fullerton, Calif.).
The ECB nucleus was eluted from an Apex Octadecyl 3 μ column (4.6×10 cm) (Jones Chromatography, Littleton, Co.) with a mobile phase of 3.9% CH3 CN/0.1% trifluoroacetic acid and a flow rate of 1 ml/min. The nucleus formation was linear with time during the assays. […] As used herein one unit of enzyme activity is defined as the amount of the deacylase required to cause formation of one μmole of the ECB nucleus per minute from ECB under the above described reaction conditions.

| Compound | substrate of the purified deacylase (in words) (purified deacylase) | percent activity relative to the deacylase activity of 100% for ECB itself (purified deacylase) [%] | other results |
| --- | --- | --- | --- |
| Daptomycin | cleaves the fatty acid side chain | – | – |
| CCCCCCCOc1ccc(CCC(=O)NC2CC(O)C(O)NC(=O)C3C(O)C(C)CN3C(=O)C(C(C)O)NC(=O)C(C(O)C(O)c3ccc(O)cc3)NC(=O)C3CC(O)CN3C(=O)C(C(C)O)NC2=O)cc1 (stereo not drawn) (X5-[ξOrn(4,5-diOH)]T[Hyp][ξhTyr(βξ-OH,γξ-OH)]T[ξPro(3ξ-OH,4ξ-Me)]; lactam 1-C; configuration not given here) | – | 30 | – |
| CCCCCCCCOc1ccc(CC(=O)NC2CC(O)C(O)NC(=O)C3C(O)C(C)CN3C(=O)C(C(C)O)NC(=O)C(C(O)C(O)c3ccc(O)cc3)NC(=O)C3CC(O)CN3C(=O)C(C(C)O)NC2=O)cc1 (stereo not drawn) (X3-[ξOrn(4,5-diOH)]T[Hyp][ξhTyr(βξ-OH,γξ-OH)]T[ξPro(3ξ-OH,4ξ-Me)]; lactam 1-C; configuration not given here) | – | 30 | – |
| CCCCCCCCCCCCCCCC(=O)NC1CC(O)C(O)NC(=O)C2C(O)C(C)CN2C(=O)C(C(C)O)NC(=O)C(C(O)C(O)c2ccc(O)cc2)NC(=O)C2CC(O)CN2C(=O)C(C(C)O)NC1=O (stereo not drawn) [aculeacin] (Palmitoyl-[ξOrn(4,5-diOH)]T[Hyp][ξhTyr(βξ-OH,γξ-OH)]T[ξPro(3ξ-OH,4ξ-Me)]; lactam 1-C; configuration not given here) | deacylates | – | – |
| CCN1C(=O)C=CC1=O [N-ethylmaleimide (NEM), N-ethylmaleimide] | – | – | enhancement of the rate of conversion of ECB to ECB nucleus (purified deacylase): 6-7 fold |
| CCCCCOc1ccc(CCC(=O)NC2CC(O)C(O)NC(=O)C3C(O)C(C)CN3C(=O)C(C(C)O)NC(=O)C(C(O)C(O)c3ccc(O)cc3)NC(=O)C3CC(O)CN3C(=O)C(C(C)O)NC2=O)cc1 (stereo not drawn) (X4-[ξOrn(4,5-diOH)]T[Hyp][ξhTyr(βξ-OH,γξ-OH)]T[ξPro(3ξ-OH,4ξ-Me)]; lactam 1-C; configuration not given here) | – | 12 | – |
| CCCCCCCCCCCC(=O)Nc1ccc(C=CC(=O)NC2CC(O)C(O)NC(=O)C3C(O)C(C)CN3C(=O)C(C(C)O)NC(=O)C(C(O)C(O)c3ccc(O)cc3)NC(=O)C3CC(O)CN3C(=O)C(C(C)O)NC2=O)cc1 (stereo not drawn) (Lauroyl-[X2][ξOrn(4,5-diOH)]T[Hyp][ξhTyr(βξ-OH,γξ-OH)]T[ξPro(3ξ-OH,4ξ-Me)]; lactam 2-C; configuration not given here) | – | 15 | – |
| CCCCCCCCCCCC(=O)Nc1ccc(C(=O)NC2CC(O)C(O)NC(=O)C3C(O)C(C)CN3C(=O)C(C(C)O)NC(=O)C(C(O)C(O)c3ccc(O)cc3)NC(=O)C3CC(O)CN3C(=O)C(C(C)O)NC2=O)cc1 (stereo not drawn) ({Lauroyl-4Abz}-[ξOrn(4,5-diOH)]T[Hyp][ξhTyr(βξ-OH,γξ-OH)]T[ξPro(3ξ-OH,4ξ-Me)]; lactam 1-C; configuration not given here) | substrates | – | – |
| CCCCCC=CCC=CCCCCCCCC(=O)NC1CC(O)C(O)NC(=O)C2C(O)C(C)CN2C(=O)C(C(C)O)NC(=O)C(C(O)C(O)c2ccc(O)cc2)NC(=O)C2CC(O)CN2C(=O)C(C(C)O)NC1=O (stereo not drawn) [echinocandin B] (X1-[ξOrn(4,5-diOH)]T[Hyp][ξhTyr(βξ-OH,γξ-OH)]T[ξPro(3ξ-OH,4ξ-Me)]; lactam 1-C; configuration not given here) | deacylates | 100 | ratio of ECB nucleus formed to ECB disappearance (reaction stoichiometry): about 52.4%; Vmax for the ECB reaction (purified enzyme): 10 to 11 µmol/min/mg |
| CCCCCCCCCCCC(=O)Nc1ccc(CC(=O)NC2CC(O)C(O)NC(=O)C3C(O)C(C)CN3C(=O)C(C(C)O)NC(=O)C(C(O)C(O)c3ccc(O)cc3)NC(=O)C3CC(O)CN3C(=O)C(C(C)O)NC2=O)cc1 (stereo not drawn) (Lauroyl-[X6][ξOrn(4,5-diOH)]T[Hyp][ξhTyr(βξ-OH,γξ-OH)]T[ξPro(3ξ-OH,4ξ-Me)]; lactam 2-C; configuration not given here) | – | 5 | – |
